Test results published in patent US8783089B2, “Device and method for determining the properties of aerosol formulations” (Boehringer Ingelheim International GmbH, priority 2008, dated 2014).

Experiment: Characterisation of the air-liquid release system (Franz diffusion cell, online UV detection at 225 nm) with dissolved active substance
Assay type: physicochemical
Experimental: Above the membrane 6 an air chamber is formed as the second compartment 12, and the entire diffusion cell 13 (Franz cell) is surrounded by thermal insulation 9 and can be temperature controlled in the desired manner by means of a hotplate 10. The release medium is mixed by means of a magnetic stirrer 14. In order to characterise the system, first of all salbutamol sulphate, as the sample active substance, was added directly in the form of a dilute solution to the release medium (PBS, phosphate buffered saline) and measured at 225 nm in the photometer. […] Salbutamol sulphate applied to the membrane 6 reaches the maximum concentration after about ten minutes. This means that the membrane 6 forms a diffusion barrier for about six minutes. The total system has a reaction time of about ten minutes, i.e. changes in concentration caused by the release of active substance are detected with a ten minute delay. On the timescale of a typical release test over 24 hours this delay can be disregarded.

## salbutamol sulphate
Applied to the membrane 6 (regenerated cellulose), release medium PBS, 225 nm
  time until maximum concentration is reached: about ten
Dilute solution added directly to the release medium (PBS), measured at 225 nm
  incubation time until the active substance concentration reaches a plateau: about four
